This note sets out measurements from ChEMBL document CHEMBL1134695, “Synthesis and evaluation of novel quinolinones as HIV-1 reverse transcriptase inhibitors” (Bioorg Med Chem Lett, 2001).

Experiment [1] concerns Human immunodeficiency virus 1. The experiment can be described thus: Antiviral activity against HIV-1 using antiinfectivity assay. It counts as functional, organism-based.
Experiment [2] has as its target Human immunodeficiency virus type 1 reverse transcriptase (Human immunodeficiency virus 1, UniProt Q72547). The experiment can be described thus: Inhibition of HIV-1 reverse transcriptase.
Experiment [3] concerns Human immunodeficiency virus type 1 reverse transcriptase (Human immunodeficiency virus 1), Q72547 [K103N].
The test system of experiment [4] is Human immunodeficiency virus type 1 reverse transcriptase (Human immunodeficiency virus 1), Q72547 [UNDEFINED MUTATION].
The target of experiment [5] is Human immunodeficiency virus type 1 reverse transcriptase (Human immunodeficiency virus 1) (UniProt Q72547).

For the compound `O=C1Nc2ccc(Cl)cc2[C@@](C#CC2CC2)(C(F)(F)F)[C@H]1O`, in experiment [1], the IC90 – broadly, the point of the concentration-response curve where the effect stands at 90% – is 637 nM. In addition, the IC50 (in general, the concentration at which inhibition is half-maximal) in experiment [2] is greater than 2000 nM.

In the case of `COC(=O)N[C@H]1C(=O)Nc2ccc(Cl)cc2[C@@]1(C#CC1CC1)C(F)(F)F`, the 90% effect concentration (IC90) in experiment [1] was 212 nM. This compound also displayed an IC50 in experiment [2] greater than 2000 nM.

Take `Nc1ccccc1CO[C@H]1C(=O)Nc2ccc(Cl)cc2[C@@]1(C#CC1CC1)C(F)(F)F`: it took 115 nM to reach the 90% level in experiment [1] (IC90). In addition, the IC50 in experiment [2] is 1020 nM.

For the compound `CC(C)=CCO[C@H]1C(=O)Nc2ccc(Cl)cc2[C@@]1(C#CC1CC1)C(F)(F)F`, the concentration for an effect of 90% (IC90) in experiment [1] is greater than 1000 nM. In experiment [2], this compound had an IC50 greater than 2000 nM.

In experiment [1], `Nc1cccc(CO[C@H]2C(=O)Nc3ccc(Cl)cc3[C@@]2(C#CC2CC2)C(F)(F)F)c1` had a 90% effect concentration (IC90) of 138 nM. Besides, the midpoint of inhibition in experiment [2], the IC50, lay at 1460 nM.

For `O=C1Nc2ccc(Cl)cc2[C@@](C#CC2CC2)(C(F)(F)F)[C@H]1OCc1ccc(F)cc1`, it took 112 nM to reach the 90% level in experiment [1] (IC90). Moreover, the midpoint of inhibition in experiment [2], the IC50, lay at 899 nM.

In experiment [1], `O=C1Nc2ccc(Cl)cc2[C@@](C#CC2CC2)(C(F)(F)F)[C@H]1OCc1cccc(F)c1` came in with an IC90 of 201 nM. The same compound gave an IC50 in experiment [2] of 1780 nM.

As to `O=C1Nc2ccc(Cl)cc2[C@@](C#CC2CC2)(C(F)(F)F)[C@H]1OCc1ccccc1`, the concentration for an effect of 90% (IC90) in experiment [1] is 71 nM. In addition, in experiment [2], the IC50 came to 440 nM.

The compound `Nc1ccc(CO[C@H]2C(=O)Nc3ccc(Cl)cc3[C@@]2(C#CC2CC2)C(F)(F)F)cc1F` gave a 90% effect concentration (IC90) in experiment [1] of 26 nM. The IC50 in experiment [2] is 241 nM.

In the case of `Nc1ccc(CO[C@H]2C(=O)Nc3ccc(Cl)cc3[C@@]2(C#CC2CC2)C(F)(F)F)cc1`, the figures for the concentration for an effect of 90% (IC90) in experiment [1], in experiment [3] and in experiment [5] were 21 nM, 1080 nM and 49 nM, respectively. The same compound yielded an IC50 in experiment [2] of 412 nM. Further, the C90 in experiment [4] was determined as 3.85 µM.

As to `O=C1C[C@](C#CC2CC2)(C(F)(F)F)c2cc(Cl)ccc2N1`, the IC90 came out at 14 nM in experiment [1], 1770 nM in experiment [3] and 992 nM in experiment [5]. The compound further registered an IC50 in experiment [2] of 130 nM.

In experiment [1], `O=C1Nc2ccc(Cl)cc2[C@@](C#CC2CC2)(C(F)(F)F)[C@H]1NCc1ccccc1` displayed a 90% effect concentration (IC90) of 218 nM. Further, the IC50 in experiment [2] is greater than 2000 nM.

`O=C1Nc2ccc(Cl)cc2[C@@](C#CC2CC2)(C(F)(F)F)[C@H]1OCc1ccncc1`: the IC90 came to 19 nM in experiment [1], 50 nM in experiment [3] and 23 nM in experiment [5]. Moreover, the half-maximal inhibitory concentration (IC50) in experiment [2] came to 129 nM. The C90 in experiment [4] came out at 4.83 µM.

In turn, `CCCO[C@H]1C(=O)Nc2ccc(Cl)cc2[C@@]1(C#CC1CC1)C(F)(F)F` registered a concentration for an effect of 90% (IC90) in experiment [1] of 62 nM. In addition, the IC50 in experiment [2] was found to be 1050 nM.

Compound `O=C1Nc2ccc(Cl)cc2[C@@](C#CC2CC2)(C(F)(F)F)[C@H]1OCc1ccccn1` came in with a 90% effect concentration (IC90) in experiment [1] of 140 nM. Moreover, in experiment [2], the IC50 is 1570 nM.

Compound `O=C1Nc2ccc(Cl)cc2[C@@](C#CC2CC2)(C(F)(F)F)[C@H]1OCc1cccnc1` displayed a 90% effect concentration (IC90) in experiment [1] of 20 nM. In addition, the 50% inhibitory concentration (IC50) in experiment [2] was found to be 438 nM.

Compound `O=C1Nc2ccc(Cl)cc2[C@@](C#CC2CC2)(C(F)(F)F)[C@H]1OCc1ccccc1F` showed an IC90 in experiment [1] of 140 nM. Half-maximal inhibition in experiment [2] (IC50) required 1300 nM.

Compound `CC(=O)N[C@H]1C(=O)Nc2ccc(Cl)cc2[C@@]1(C#CC1CC1)C(F)(F)F` yielded a concentration for an effect of 90% (IC90) in experiment [1] of 917 nM. Further, the 50% inhibitory concentration (IC50) in experiment [2] was greater than 2000 nM.

As for `O=C1Nc2ccc(Cl)cc2[C@@](C#CC2CC2)(C(F)(F)F)[C@H]1OCC1CC1`, the IC90 in experiment [1] is 130 nM. Further, the IC50 in experiment [2] amounted to 1430 nM.
